Data taken from PubChem BioAssay (NCI).
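Interpolation was linear, between the two tested concentrations surrounding the appropriate level; five concentrations were tested over 48 hours in 96-well plates. GI50 is the concentration that inhibits growth by half. TGI denotes the concentration required for complete inhibition of growth.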

Tests used:
Experiment in all cases: NCI tumour cell line growth inhibition, 48 h
MCF7 breast = test system: MCF7 breast
SK-MEL-2 melanoma = test system: SK-MEL-2 melanoma
SW-620 colon = test system: SW-620 colon
RPMI-8226 leukemia = test system: RPMI-8226 leukemia
M14 melanoma = test system: M14 melanoma
UACC-62 melanoma = test system: UACC-62 melanoma
HOP-62 NSCLC = test system: HOP-62 NSCLC
OVCAR-8 ovarian = test system: OVCAR-8 ovarian
MALME-3M melanoma = test system: MALME-3M melanoma
HOP-92 NSCLC = test system: HOP-92 NSCLC
MDA-MB-231 breast = test system: MDA-MB-231 breast
NCI-H226 lung = test system: NCI-H226 lung
CAKI-1 renal = test system: CAKI-1 renal
NCI-H522 lung = test system: NCI-H522 lung
HL-60(TB) leukemia = test system: HL-60(TB) leukemia
SF-539 CNS = test system: SF-539 CNS
RXF 393 renal = test system: RXF 393 renal
786-0 renal = test system: 786-0 renal
SR leukemia = test system: SR leukemia
MDA-MB-468 breast = test system: MDA-MB-468 breast
TK-10 renal = test system: TK-10 renal
MOLT-4 leukemia = test system: MOLT-4 leukemia
K-562 leukemia = test system: K-562 leukemia
HCC-2998 colon = test system: HCC-2998 colon
U251 CNS = test system: U251 CNS
CCRF-CEM leukemia = test system: CCRF-CEM leukemia
HCT-116 colon = test system: HCT-116 colon
SN12C renal = test system: SN12C renal
A549 NSCLC = test system: A549 NSCLC
NCI-H460 lung = test system: NCI-H460 lung
BT-549 breast = test system: BT-549 breast
SNB-75 CNS = test system: SNB-75 CNS
ACHN renal = test system: ACHN renal
HT29 colon = test system: HT29 colon
OVCAR-3 ovarian = test system: OVCAR-3 ovarian
OVCAR-5 ovarian = test system: OVCAR-5 ovarian
UACC-257 melanoma = test system: UACC-257 melanoma
A498 renal = test system: A498 renal
NCI/ADR-RES ovarian = test system: NCI/ADR-RES ovarian
OVCAR-4 ovarian = test system: OVCAR-4 ovarian
DU-145 prostate = test system: DU-145 prostate
HCT-15 colon = test system: HCT-15 colon
SNB-19 CNS = test system: SNB-19 CNS
SK-OV-3 ovarian = test system: SK-OV-3 ovarian
UO-31 renal = test system: UO-31 renal
MDA-MB-435 = test system: MDA-MB-435
SF-295 CNS = test system: SF-295 CNS
EKVX NSCLC = test system: EKVX NSCLC
T-47D breast = test system: T-47D breast
SK-MEL-5 melanoma = test system: SK-MEL-5 melanoma
PC-3 prostate = test system: PC-3 prostate
IGROV1 ovarian = test system: IGROV1 ovarian
LOX IMVI melanoma = test system: LOX IMVI melanoma
NCI-H23 lung = test system: NCI-H23 lung
HS 578T breast = test system: HS 578T breast

Compound: O=C(Nc1ccc(OCC(=O)c2ccc(Cl)cc2)cc1)Nc1ccc(Cl)c(C(F)(F)F)c1
- GI50 (MCF7 breast): 5.15 µM
- TGI (MCF7 breast): > 100 µM
- GI50 (SK-MEL-2 melanoma): 2.92 µM
- TGI (SK-MEL-2 melanoma): > 100 µM
- GI50 (SW-620 colon): 4.67 µM
- TGI (SW-620 colon): > 100 µM
- GI50 (RPMI-8226 leukemia): 3.21 µM
- TGI (RPMI-8226 leukemia): > 100 µM
- GI50 (M14 melanoma): 4.4 µM
- TGI (M14 melanoma): > 100 µM
- GI50 (UACC-62 melanoma): 3.28 µM
- TGI (UACC-62 melanoma): > 100 µM
- GI50 (HOP-62 NSCLC): 10.5 µM
- TGI (HOP-62 NSCLC): 75.8 µM
- GI50 (OVCAR-8 ovarian): 7.17 µM
- TGI (OVCAR-8 ovarian): > 100 µM
- GI50 (MALME-3M melanoma): 3.61 µM
- TGI (MALME-3M melanoma): > 100 µM
- GI50 (HOP-92 NSCLC): 4.07 µM
- TGI (HOP-92 NSCLC): 42.1 µM
- GI50 (MDA-MB-231 breast): 5.93 µM
- TGI (MDA-MB-231 breast): 32 µM
- GI50 (NCI-H226 lung): 3.16 µM
- TGI (NCI-H226 lung): > 100 µM
- GI50 (CAKI-1 renal): 4.1 µM
- TGI (CAKI-1 renal): > 100 µM
- GI50 (NCI-H522 lung): 3.68 µM
- TGI (NCI-H522 lung): > 100 µM
- GI50 (HL-60(TB) leukemia): 4.43 µM
- TGI (HL-60(TB) leukemia): > 100 µM
- GI50 (SF-539 CNS): 7.74 µM
- TGI (SF-539 CNS): 24.8 µM
- GI50 (RXF 393 renal): 3.13 µM
- TGI (RXF 393 renal): 9.28 µM
- GI50 (786-0 renal): 5.8 µM
- TGI (786-0 renal): 26.1 µM
- GI50 (SR leukemia): 13.7 µM
- TGI (SR leukemia): > 100 µM
- GI50 (MDA-MB-468 breast): 2.97 µM
- TGI (MDA-MB-468 breast): > 100 µM
- GI50 (TK-10 renal): 15.9 µM
- TGI (TK-10 renal): > 100 µM
- GI50 (MOLT-4 leukemia): 3.6 µM
- TGI (MOLT-4 leukemia): > 100 µM
- GI50 (K-562 leukemia): 10.4 µM
- TGI (K-562 leukemia): > 100 µM
- GI50 (HCC-2998 colon): 3.4 µM
- TGI (HCC-2998 colon): > 100 µM
- GI50 (U251 CNS): 5.48 µM
- TGI (U251 CNS): 25.8 µM
- GI50 (CCRF-CEM leukemia): 3.95 µM
- TGI (CCRF-CEM leukemia): > 100 µM
- GI50 (HCT-116 colon): 4.66 µM
- TGI (HCT-116 colon): > 100 µM
- GI50 (SN12C renal): 6 µM
- TGI (SN12C renal): > 100 µM
- GI50 (A549 NSCLC): 3.69 µM
- TGI (A549 NSCLC): > 100 µM
- GI50 (NCI-H460 lung): 3.46 µM
- TGI (NCI-H460 lung): > 100 µM
- GI50 (BT-549 breast): 11.5 µM
- TGI (BT-549 breast): 70.3 µM
- GI50 (SNB-75 CNS): 2.53 µM
- TGI (SNB-75 CNS): 45.6 µM
- GI50 (ACHN renal): 3.75 µM
- TGI (ACHN renal): > 100 µM
- GI50 (HT29 colon): 4.75 µM
- TGI (HT29 colon): > 100 µM
- GI50 (OVCAR-3 ovarian): 4.12 µM
- TGI (OVCAR-3 ovarian): > 100 µM
- GI50 (OVCAR-5 ovarian): 7.49 µM
- TGI (OVCAR-5 ovarian): > 100 µM
- GI50 (UACC-257 melanoma): 3.55 µM
- TGI (UACC-257 melanoma): > 100 µM
- GI50 (A498 renal): 3 µM
- TGI (A498 renal): 30 µM
- GI50 (NCI/ADR-RES ovarian): 4.06 µM
- TGI (NCI/ADR-RES ovarian): > 100 µM
- GI50 (OVCAR-4 ovarian): 5.35 µM
- TGI (OVCAR-4 ovarian): 46.1 µM
- GI50 (DU-145 prostate): 7.97 µM
- TGI (DU-145 prostate): > 100 µM
- GI50 (HCT-15 colon): 3.17 µM
- TGI (HCT-15 colon): > 100 µM
- GI50 (SNB-19 CNS): 4.62 µM
- TGI (SNB-19 CNS): 30.1 µM
- GI50 (SK-OV-3 ovarian): 14.2 µM
- TGI (SK-OV-3 ovarian): > 100 µM
- GI50 (UO-31 renal): 3.44 µM
- TGI (UO-31 renal): > 100 µM
- GI50 (MDA-MB-435): 6.7 µM
- TGI (MDA-MB-435): > 100 µM
- GI50 (SF-295 CNS): 3.8 µM
- TGI (SF-295 CNS): 32.4 µM
- GI50 (EKVX NSCLC): 3.53 µM
- TGI (EKVX NSCLC): > 100 µM
- GI50 (T-47D breast): 3.25 µM
- TGI (T-47D breast): > 100 µM
- GI50 (SK-MEL-5 melanoma): 6.19 µM
- TGI (SK-MEL-5 melanoma): > 100 µM
- GI50 (PC-3 prostate): 2.9 µM
- TGI (PC-3 prostate): > 100 µM
- GI50 (IGROV1 ovarian): 5.85 µM
- TGI (IGROV1 ovarian): > 100 µM
- GI50 (LOX IMVI melanoma): 4.41 µM
- TGI (LOX IMVI melanoma): 22.2 µM
- GI50 (NCI-H23 lung): 5.83 µM
- TGI (NCI-H23 lung): 31.1 µM
- GI50 (HS 578T breast): 4.44 µM
- TGI (HS 578T breast): > 100 µM
